Values quoted from earlier work as cited in patent US20050287214A1, “Squeeze controlled oral dosage form” (priority 2004, published 2005).

Conditions: solubility of the active agent as stated in the formulation tables; no method given

solubility: Ranitidine (solubility = 880 mg/ml)
SMILES: CNC(=C[N+](=O)[O-])NCCSCc1ccc(CN(C)C)o1 [Ranitidine]
